How the values were obtained:
Assay type in all cases: cell-based
[1] = test system: Gal4-responsive reporter gene; assay: Control experiment without Gal4-RXR hybrid receptor (reporter gene construct and renilla luciferase only)
Method: (§1) Moreover, 7 was characterized for its ability to modulate RXR target gene expression under more physiological conditions. Hepatoma cells (HepG2) were incubated with 7 (30 µM) or reference RXR agonist bexarotene (9, 1 µM) for eight hours and mRNA expression of RXR regulated genes ATP-binding cassette transporter A1 (ABCA1), angiopoietin like protein 4 (ANGPTL4) and apolipoprotein E (ApoE) was analysed by quantitative real-time PCR.
(§2) The Gal4 hybrid reporter gene assays were conducted as reported previously[39]–[41]. pFA-CMV-based constructs comprising the ligand binding domain of the human nuclear receptor in question were used as expression plasmids for the chimera receptors. pFR-Luc (Stratagene) served as reporter plasmid and pRL-SV40 (Promega) for normalization of transfection efficiency and cell growth. The assays were conducted in 96-well format in HEK293T cells that were cultured as described previously[39]–[41]. Transient transfection was carried out using Lipofectamine LTX reagent (Invitrogen) according to the manufacturer’s protocol. After transfection and incubation with test compounds (12–14 h), cells were assayed for luciferase activity using Dual-Glo™ Luciferase Assay System (Promega) according to the manufacturer’s protocol. Luminescence was measured with an Infinite M200 luminometer (Tecan Deutschland GmbH). […]

PPARγ = molecular target: T1, PPARγ (Homo sapiens, UniProt P37231); assay: Gal4 hybrid reporter gene assay PPARγ (selectivity profiling)
T1 construct: expressed in transfected cells; host or cells: HEK293T
T1 sequence (P37231 238-503 limits assumed): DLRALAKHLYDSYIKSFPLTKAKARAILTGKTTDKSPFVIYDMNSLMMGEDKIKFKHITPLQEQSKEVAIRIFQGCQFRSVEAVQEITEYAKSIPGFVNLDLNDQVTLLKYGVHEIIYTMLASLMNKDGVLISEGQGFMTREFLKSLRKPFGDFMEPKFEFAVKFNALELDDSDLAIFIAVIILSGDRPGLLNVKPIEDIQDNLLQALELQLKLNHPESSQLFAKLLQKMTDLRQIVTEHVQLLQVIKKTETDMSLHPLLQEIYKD
Method: as §1, §2

LXRα = molecular target: T2, LXRα (Homo sapiens, UniProt Q13133); assay: Gal4 hybrid reporter gene assay LXRα (selectivity profiling)
T2 construct: expressed in transfected cells; host or cells: HEK293T
T2 sequence (Q13133 209-447 limits assumed): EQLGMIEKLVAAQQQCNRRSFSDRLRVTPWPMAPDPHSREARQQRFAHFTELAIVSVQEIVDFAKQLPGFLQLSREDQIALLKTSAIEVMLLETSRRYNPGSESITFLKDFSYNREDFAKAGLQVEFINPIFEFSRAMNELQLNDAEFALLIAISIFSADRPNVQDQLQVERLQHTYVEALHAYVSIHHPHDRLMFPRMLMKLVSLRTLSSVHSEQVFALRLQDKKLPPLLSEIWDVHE
Method: as §1, §2

vitamin D receptor [VDR] = molecular target: T3, vitamin D receptor [VDR] (Homo sapiens, UniProt P11473); assay: Gal4 hybrid reporter gene assay VDR (selectivity profiling)
T3 construct: expressed in transfected cells; host or cells: HEK293T
T3 sequence (P11473 127-423 limits assumed): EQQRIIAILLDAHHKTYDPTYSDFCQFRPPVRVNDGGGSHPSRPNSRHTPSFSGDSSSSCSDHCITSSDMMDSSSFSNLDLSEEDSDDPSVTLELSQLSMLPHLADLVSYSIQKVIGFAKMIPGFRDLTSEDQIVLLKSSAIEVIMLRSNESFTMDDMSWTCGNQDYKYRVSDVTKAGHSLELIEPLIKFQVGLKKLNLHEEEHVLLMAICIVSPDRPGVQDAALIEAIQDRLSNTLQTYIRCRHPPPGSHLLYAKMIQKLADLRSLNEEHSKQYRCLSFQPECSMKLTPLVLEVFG
Method: as §1, §2

[2] = molecular target: T4, pregnane X receptor [PXR] (Homo sapiens, UniProt O75469); assay: Gal4 hybrid reporter gene assay PXR (selectivity profiling)
T4 construct: expressed in transfected cells; host or cells: HEK293T
T4 sequence (O75469 146-433 limits assumed): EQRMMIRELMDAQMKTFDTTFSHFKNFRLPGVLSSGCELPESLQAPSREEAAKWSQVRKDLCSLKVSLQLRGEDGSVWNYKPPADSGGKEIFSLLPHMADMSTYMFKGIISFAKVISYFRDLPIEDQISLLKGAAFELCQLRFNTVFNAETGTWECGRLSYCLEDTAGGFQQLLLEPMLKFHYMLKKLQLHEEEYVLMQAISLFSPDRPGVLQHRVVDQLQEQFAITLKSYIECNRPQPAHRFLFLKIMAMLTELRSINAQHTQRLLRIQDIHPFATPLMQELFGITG
Method: as §1, §2

[3] = test system: angiopoietin like protein 4 (ANGPTL4) mRNA in HepG2 cells; assay: Target gene quantification (quantitative real-time PCR), ANGPTL4; conditions: HepG2, 7 at 30 µM versus bexarotene at 1 µM, 8 h, qRT-PCR
Method: as §1
HepG2 cells were incubated with test compound 7 (30 µM) or bexarotene (1 µM) as positive control each dissolved in 0.1% DMSO or 0.1% DMSO alone as untreated control for 8 h, harvested, washed with cold phosphate buffered saline (PBS) and then directly used for RNA extraction with the Total RNA Mini Kit (R6834-02, Omega Bio-Tek, Inc., Norcross, GA, USA). 2 µg RNA were reverse-transcribed into cDNA using the High-Capacity cDNA Reverse Transcription Kit (4368814, Thermo Fischer Scientific, Inc.). RXR target gene expression was evaluated by quantitative real time PCR analysis with a StepOnePlus™ System (Life Technologies, Carlsbad, CA, USA) using PowerSYBRGreen (Life Technologies; 12.5 µl per well) and the primers reported in Supplementary Table 4[58]. […] The expression was quantified by the comparative ∆∆Ct method. […] Results are expressed as mean ± standard error of the mean (SEM) relative mRNA expression compared to DMSO (0.1%) control which was set as 1.

reporter transactivation without hybrid receptor [1]: no reporter transactivation
activity on PPARγ (PPARγ): no activity
activity on LXRα (LXRα): no activity
activity on VDR (vitamin D receptor [VDR]): no activity
activity on PXR [2]: no activity
Compound: CC(C)(C)c1cc(/C=N/NC(=O)c2ccc(N)cc2)cc(C(C)(C)C)c1 [Compound 7]
induction of ANGPTL4 mRNA expression [3]: comparable efficacy as RXR agonist bexarotene
